Test results taken from patent publication US8173711B2, “Agent for relief or prevention of xerostomia” (Kaneka Corporation, priority 2007, dated 2012).
Marks after values point to notes of the source that are not given here.

Assays:
healthy persons = assay: Saxon test, amount of secreted saliva, coenzyme Q10 capsule intake in healthy persons; type: in vivo, human; conditions: for Amount of secreted saliva, Increased amount: difference after minus before one-month intake; for Amount of secreted saliva, After intake / Amount of secreted saliva, Before intake: group average; for Amount of secreted saliva, After intake: after one 100 mg capsule every day for one month; for Amount of secreted saliva, Before intake: before intake of one 100 mg capsule every day for one month; for Significant or excessive increase of secreted saliva before versus after intake: one capsule every day for one month
Experimental: (§1) The amount of secreted saliva was measured by Saxon test. Namely, a test subject chewed a piece of gauze for 2 minutes. The weight of the gauze piece had been measured in advance. After the 2-minute chewing, the weight of the gauze piece was measured. The amount of secreted saliva was calculated as a difference between the weights of the gauze piece before and after the 2-minute chewing. In the present example, those whose amount of secreted saliva measured by Saxon test was 2.0 g/2 min. or less were determined as xerostomia patients, and those whose amount of secreted saliva was more than that were determined as healthy persons. Tables 2 and 3 illustrate the average values of all subjects of each group.
In total, 57 healthy persons (12 males, 45 females) were collected as volunteers. One oxidized coenzyme Q10-containing capsule having the composition illustrated in Table 1 (Test food 1, 240 mg per capsule) was administered every day for one month to a group consisting of 22 healthy persons (5 males, 17 females), and one reduced coenzyme Q10-containing capsule having the composition illustrated in Table 1 (Test food 2, 240 mg per capsule) was administered every day for one month to another group consisting of 22 healthy persons (5 males, 17 females). The amount of secreted saliva was measured for each group before and after the intake by the same procedure as that in Example 1. To remaining 13 healthy persons (2 males, 11 females), one placebo capsule (Control food, 240 mg per capsule) was administered every day for one month. The amount of secreted saliva was measured before and after the intake.

[1] = test system: xerostomia (dry mouth) outpatients; assay: Saxon test, amount of secreted saliva, coenzyme Q10 capsule intake in patients with xerostomia; type: in vivo, human; conditions: for Amount of secreted saliva, Increased amount: difference after minus before one-month intake; for Amount of secreted saliva, After intake / Amount of secreted saliva, Before intake: group average; for Amount of secreted saliva, After intake: after one 100 mg capsule every day for one month; for Amount of secreted saliva, Before intake: before intake of one 100 mg capsule every day for one month
Experimental: A test subject chews a piece of gauze for 2 minutes. The weight of the gauze piece has been measured in advance. After the 2-minute chewing, the weight of the gauze is measured. An amount of secreted saliva is calculated as a difference between the weights of the gauze piece before and after the 2-minute chewing.
In total 23 xerostomia (dry mouth) outpatients (23 females including 21 Sjogren syndrome patients) were divided into three groups. To one group consisting of 9 patients, one oxidized coenzyme Q10-containing capsule having the composition illustrated in Table 1 (Test food 1, 240 mg per capsule) was administered every day for one month. To another group consisting of another 9 patients, one reduced coenzyme Q10-containing capsule having the composition shown in Table 1 (Test food 2, 240 mg per capsule) was administered every day for one month. The amount of secreted saliva was measured for each group before and after the intake. To the other group consisting of remaining 5 patients, one placebo capsule (Control food, 240 mg per capsule) was administered every day for one month. The amount of secreted saliva was similarly measured before and after the intake.
as §1

[2] = test system: Parkinson's disease model mice; conditions: Non-Patent Document 2; cited from earlier work
rats = conditions: 52 consecutive weeks, 1.2 g/kg/day; cited from earlier work

Compound	Amount of secreted saliva, Increased amount (healthy persons) [g/2 min.]	Amount of secreted saliva, After intake (healthy persons) [g/2 min.]	Amount of secreted saliva, Before intake (healthy persons) [g/2 min.]	Significant or excessive increase of secreted saliva before versus after intake (healthy persons)	Amount of secreted saliva, Increased amount [1] [g/2 min.]	Amount of secreted saliva, After intake [1]	Amount of secreted saliva, After intake ([1]; listed as oxidized coenzyme Q10) [g/2 min.]	Amount of secreted saliva, Before intake [1] [g/2 min.]	Amount of secreted saliva, Increased amount ([1]; listed as reduced coenzyme Q10) [g/2 min.]	Amount of secreted saliva, After intake ([1]; listed as reduced coenzyme Q10) [g/2 min.]	Comparison of salivary secretion-increasing effect ([1]; reduced versus oxidized coenzyme Q10 capsule)	Effect on conditions of Parkinson's disease model mice [2]	Toxicity (rats)
COC1=C(OC)C(=O)C(C/C=C(\C)CC/C=C(\C)CC/C=C(\C)CC/C=C(\C)CC/C=C(\C)CC/C=C(\C)CC/C=C(\C)CC/C=C(\C)CC/C=C(\C)CCC=C(C)C)=C(C)C1=O [Oxidized coenzyme Q10]	0.43	6.16	5.73	None of the oxidized coenzyme Q10 capsule administration group, the reduced coenzyme Q10 capsule administration group and the placebo capsule administration group showed a significant or excessive increase	0.59	1.28* g/2 min.	1.28	0.69	–	–	–	–	–
COc1c(O)c(C)c(C/C=C(\C)CC/C=C(\C)CC/C=C(\C)CC/C=C(\C)CC/C=C(\C)CC/C=C(\C)CC/C=C(\C)CC/C=C(\C)CC/C=C(\C)CCC=C(C)C)c(O)c1OC [Reduced coenzyme Q10]	0.10	3.54	3.44	None of the oxidized coenzyme Q10 capsule administration group, the reduced coenzyme Q10 capsule administration group and the placebo capsule administration group showed a significant or excessive increase	0.70	1.52* g/2 min.	–	0.82	0.7	1.52	higher effects than oxidized coenzyme Q10	–	–
ubiquinone [Oxidized coenzyme Q]	–	–	–	–	–	–	–	–	–	–	–	effects to improve conditions	no evidence of toxicity
